Measurements reported in PubChem BioAssay AID743161 (Sanford-Burnham Center for Chemical Genomics, 2013).
Several values for one entry are separate records, joined by “and”; a condition that tells them apart may be missing. Equal entries are not always repeated. Activity calls are given as the source filed them.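 The calls were made as follows: active = compounds whose lipid-stain IC50 is at most a set limit, with nuclear-stain IC50 a set multiple higher; inactive = the rest.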

Test system: H9c2 rat cardiomyoblasts, Nile Red TAG fluorescence, overnight
Assay: TAG accumulation blockers, Nile Red lipid stain – cell-based, H9c2 rat cardiomyoblasts, Nile Red fluorescence, primary readout, dose response (AID 743161)

SMILES	IC50
O=C(Nc1cccc(-c2nc3ccccc3[nH]2)c1)c1cccc2c1C(=O)N(CCOc1ccccc1)C2	1.01 µM
CCOC(=O)c1cccc(NC(=O)c2cccc3c2C(=O)N(CCOC)C3)c1	> 50 µM (inactive)
Cc1ccc(-c2csc(NC(=O)CSc3nc4ccccc4c(=O)n3CCCN(C)C)n2)cc1	17.5 µM (inactive)
CCN(CC)S(=O)(=O)c1ccc(NC(=O)c2cccc3c2C(=O)N(CCOC)C3)cc1	> 50 µM (inactive)
CN(C)CCCn1c(SCC(=O)Nc2nc(-c3cccc(Br)c3)cs2)nc2ccccc2c1=O	22.8 µM (inactive)
O=C(Nc1cccc(-c2nc3ccccc3[nH]2)c1)c1cccc2c1C(=O)N(CCc1ccccc1)C2	8.04 µM
CCCN1Cc2cccc(C(=O)Nc3cccc(C(C)=O)c3)c2C1=O	> 50 µM (inactive)
COCCN1Cc2cccc(C(=O)Nc3cccc(Cl)c3)c2C1=O	> 50 µM (inactive)
CCC(C)(C)NC(=O)C(c1ccc(C)cc1)N(Cc1ccco1)C(=O)CCC(=O)Nc1nccs1 (centres undefined)	8.41 µM
Cc1cccc2c(C(=O)N3CCN(c4ccccc4)CC3)cc(-c3ccncc3)nc12	4.25 µM
CCCC(=O)Nc1nc2ccc(NC(=O)c3c(F)c(F)c(OC)c(F)c3F)cc2s1	8.2 µM
O=C(Nc1cccc2ncccc12)c1ccc(Cl)cc1	> 50 µM (inactive)
CC(=O)Nc1cccc(-c2nc3ccccc3[nH]2)c1	> 50 µM (inactive)
CCCCN1Cc2cccc(C(=O)Nc3cccc(-c4nc5ccccc5[nH]4)c3)c2C1=O	0.982 µM
COc1ccccc1CCN1Cc2cccc(C(=O)Nc3cccc(-c4nc5ccccc5[nH]4)c3)c2C1=O	1.07 µM
CCn1c(SCC(=O)Nc2nc(-c3ccc(C)cc3)cs2)nnc1-c1ccccc1O	7.87 µM
COCCN1Cc2cccc(C(=O)Nc3cccc(C(C)=O)c3)c2C1=O	17.5 µM (inactive)
O=C(Nc1cccc(-c2nc3ccccc3[nH]2)c1)C1CCCC1	44.3 µM (inactive)
CCN(CC)S(=O)(=O)c1ccc(N2CCOCC2)c(NC(=O)c2[nH]c(C)c(C(C)=O)c2C)c1	11.3 µM
COCCN1Cc2cccc(C(=O)Nc3ccc(C)cc3)c2C1=O	19.3 µM (inactive)
COCCN1Cc2cccc(C(=O)Nc3ccc(S(=O)(=O)N4CCOCC4)cc3)c2C1=O	> 50 µM (inactive)
CCOc1ccc(CCNC(=O)CN2CCN(Cc3ccccc3C)C2=O)cc1OCC	10.8 µM
CCOC(=O)c1cc(-c2ccccc2)sc1NC(=O)C(C)N1C(=O)NC(C)(c2ccc(Cl)cc2)C1=O (centres undefined)	8.38 µM

SMILES	IC50
COCCN1Cc2cccc(C(=O)Nc3cccc(-c4nc5ccc(C(F)(F)F)cc5[nH]4)c3)c2C1=O	0.832 µM
COCCN1Cc2cccc(C(=O)Nc3ccc(S(=O)(=O)N4CCCCC4)cc3)c2C1=O	> 50 µM (inactive)
O=C(CCC(=O)N1CCOc2ccc(Cl)cc21)NCCCN1CCC(Cc2ccccc2)CC1	12.6 µM
O=C(Nc1cccc(-c2nc3ccccc3[nH]2)c1)c1cccc2c1C(=O)N(CCN1CCOCC1)C2	3.36 µM
Cc1ccc(Nc2nc(OC(C(F)(F)F)C(F)(F)F)nc(N3CCOCC3)n2)cc1	3.9 µM
CSCCCN1Cc2cccc(C(=O)Nc3cccc(-c4nc5ccccc5[nH]4)c3)c2C1=O	0.661 µM
COCCN1Cc2cccc(C(=O)Nc3cccc(-c4nc5ccccc5[nH]4)c3)c2C1=O	1.19 µM and 1.25 µM and 1.68 µM
O=[N+]([O-])c1ccc(Nc2nc(NC3CCCCC3)nc(N3CCCC3)n2)cc1	14 µM
CCC(C)(C)NC(=O)C(c1ccc(OC)cc1)N(Cc1cccs1)C(=O)CCC(=O)Nc1cc(C)on1 (centres undefined)	5.88 µM
COc1cccc(-c2cc(C(=O)Nc3ccc(N(C)C(C)=O)cc3)c3cc(Br)ccc3n2)c1	10.4 µM
COCCN1Cc2cccc(C(=O)Nc3cccc(C(=O)Nc4ccccc4)c3)c2C1=O	2.9 µM
COCCN1Cc2cccc(C(=O)Nc3cccc(C(=O)Nc4ccccc4OC)c3)c2C1=O	5.75 µM
COCCN1Cc2cccc(C(=O)Nc3ccc(CN4CCOCC4)cc3)c2C1=O	> 50 µM (inactive)
COCCN1Cc2cccc(C(=O)Nc3nc4ccccc4[nH]3)c2C1=O	> 50 µM (inactive)
COCCN1Cc2cccc(C(=O)Nc3ccc(-c4nc5ccccc5[nH]4)cc3)c2C1=O	0.0525 µM
O=C(CSc1nc2ccc(Nc3nc(N4CCOCC4)nc(N4CCOCC4)n3)cc2s1)Nc1ccccc1Cl	7.85 µM
COc1cc(NC(=O)c2cc([N+](=O)[O-])ccc2NC(=O)CN2CCN(c3ccccn3)CC2)cc(OC)c1	8.11 µM
Cc1ccccc1NC(=O)CSc1nc2ccc(Nc3nc(N4CCOCC4)nc(N4CCOCC4)n3)cc2s1	6.86 µM
CCCN1Cc2cccc(C(=O)Nc3ccc(-c4nc5ccccc5[nH]4)cc3)c2C1=O	> 50 µM (inactive)
COCCN1Cc2cccc(C(=O)Nc3cccc(-c4nc5ccc(F)cc5[nH]4)c3)c2C1=O	1.27 µM
COCCN1Cc2cccc(C(=O)Nc3cccc(-c4nc5ccc(Cl)cc5[nH]4)c3)c2C1=O	1.42 µM
COc1ccc(CCN2Cc3cccc(C(=O)Nc4cccc(-c5nc6ccccc6[nH]5)c4)c3C2=O)cc1OC	1.1 µM
COCCCN1Cc2cccc(C(=O)Nc3cccc(-c4nc5ccccc5[nH]4)c3)c2C1=O	2.29 µM

SMILES	IC50
Cc1ccccc1OCCNc1cc(N2CC(C)NC(C)C2)ccc1[N+](=O)[O-] (centres undefined)	11.3 µM
CCCN1Cc2cccc(C(=O)Nc3ccc(C)cc3)c2C1=O	> 50 µM (inactive)
CCOCCN1Cc2cccc(C(=O)Nc3cccc(-c4nc5ccccc5[nH]4)c3)c2C1=O	1.18 µM
O=C1COc2ccc(C(=O)CSc3nc4ccccc4c(=O)n3-c3ccc(Cl)c(Cl)c3)cc2N1	14.9 µM
COCCN1Cc2cccc(C(=O)Nc3cccnc3)c2C1=O	> 50 µM (inactive)
O=C(Nc1cccc(-c2nc3ccccc3[nH]2)c1)c1ccncc1	> 50 µM (inactive)
COc1cc2c(cc1OC)C(C)N(C(=O)c1cc3c(C)cc(C)cc3[nH]1)CC2 (centres undefined)	18.2 µM (inactive)
CCOc1ccc(NC(=O)CN(C)C(=O)c2cc(-c3ccc(OC)cc3)nc3ccccc23)cc1OCC	15.3 µM (inactive)
O=C(Nc1cccc(-c2nc3ccccc3[nH]2)c1)c1cccc2c1C(=O)N(CC1CC1)C2	1.53 µM
COCCn1cnc2cccc(C(=O)Nc3cccc(-c4nc5ccccc5[nH]4)c3)c2c1=O	> 50 µM (inactive)
CC(C)CC(=O)Nc1cccc(-c2nc3ccccc3[nH]2)c1	> 50 µM (inactive)
COc1ccc(-c2csc(NC(=O)c3ccc(OCC(=O)N4CCOCC4)c(OC)c3)n2)cc1	0.662 µM
COCCN1Cc2cccc(C(=O)Nc3nc4ccccc4n3C)c2C1=O	> 50 µM (inactive)
O=C(Nc1cccc(-c2nc3ccccc3[nH]2)c1)c1ccccc1	32.8 µM (inactive)
CCCCSc1nc2ccc(Nc3nc(N4CCOCC4)nc(N4CCOCC4)n3)cc2s1	7.11 µM
O=C(CSc1nc2ccc(Nc3nc(N4CCOCC4)nc(N4CCOCC4)n3)cc2s1)NCc1ccco1	6.77 µM
Cc1ccc(-c2nc(NC(=O)c3cc(C(C)(C)C)nn3C)sc2C)cc1Cl	4.26 µM
CCCC(=O)Nc1nc2ccc(NC(=O)c3ccccc3F)cc2s1	13.5 µM
Cc1ccccc1NC(=O)CSc1nc(Nc2ccccc2)nc(N2CCOCC2)n1	15.3 µM (inactive)
CCOc1ccccc1NC(=O)c1cccc(NC(=O)c2ccco2)c1	12 µM
COCCN1Cc2cccc(C(=O)Nc3cccc(-c4nc5ccc(C)cc5[nH]4)c3)c2C1=O	1.31 µM
COCCN1Cc2cccc(C(=O)Nc3cccc(Cl)c3Cl)c2C1=O	> 50 µM (inactive)
Cc1cc(C)c2nc(-c3ccncc3)cc(C(=O)N3CCN(Cc4ccccc4Cl)CC3)c2c1	5.05 µM
